Measurements taken from patent US20230085307A1, “PYRIDAZINONE COMPOUND AND HERBICIDE” (NISSAN CHEMICAL CORPORATION, priority 2019, published 2023).

How the values were obtained:
false cleavers [1] = experiment: Test Example 5: herbicidal effect by foliage application, plastic box (Table 20, symbol Q); format: in vivo, false cleavers (Galium spurium); conditions: foliage application, 320 g/ha, evaluated three weeks after application
Summary of the method: (§1)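 Plants were sown into sterilized diluvial soil under about 1.5 cm cover and kept in a greenhouse at 25° C. to 30° C. Fourteen days on, foliage received an even spray of the diluted emulsion. Herbicidal or crop effect was judged three weeks afterwards.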

velvetleaf [2] = experiment: Test Example 4: herbicidal effect by soil treatment (Table 19, symbol M); format: in vivo, velvetleaf (Abutilon theophrasti); conditions: 320 g/ha
Summary of the method: (§2)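 Pre-emergence style soil spray: seeds under ~1.5 cm sterilized diluvial soil received a uniform coat of emulsion diluted to the predetermined herbicide amount. Greenhouse 25–30° C; readout at week three on previously defined criteria.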

redroot pigweed [3] = experiment: Test Example 4: herbicidal effect by soil treatment (Table 19, symbol N); format: in vivo, redroot pigweed (Amaranthus retroflexus); conditions: 320 g/ha
Summary of the method: as §2

green foxtail [4] = experiment: Test Example 4: herbicidal effect by soil treatment (Table 19, symbol G); format: in vivo, green foxtail (Setaria viridis); conditions: 320 g/ha
Summary of the method: as §2

wild oat [5] = experiment: Test Example 5: herbicidal effect by foliage application, plastic box (Table 20, symbol I); format: in vivo, wild oat (Avena fatua); conditions: foliage application, 320 g/ha, evaluated three weeks after application
Summary of the method: as §1

redroot pigweed [6] = experiment: Test Example 5: herbicidal effect by foliage application, plastic box (Table 20, symbol N); format: in vivo, redroot pigweed (Amaranthus retroflexus); conditions: foliage application, 320 g/ha, evaluated three weeks after application
Summary of the method: as §1

windgrass [7] = experiment: Test Example 5: herbicidal effect by foliage application, plastic box (Table 20, symbol L); format: in vivo, windgrass (Apera spica-venti); conditions: foliage application, 320 g/ha, evaluated three weeks after application
Summary of the method: as §1

Italian ryegrass [8] = experiment: Test Example 4: herbicidal effect by soil treatment (Table 19, symbol K); format: in vivo, Italian ryegrass (Lolium multiflorum); conditions: 320 g/ha
Summary of the method: as §2

blackgrass [9] = experiment: Test Example 5: herbicidal effect by foliage application, plastic box (Table 20, symbol J); format: in vivo, blackgrass (Alopecurus myosuroides); conditions: foliage application, 320 g/ha, evaluated three weeks after application
Summary of the method: as §1

late watergrass = experiment: Test Example 1: herbicidal activity, application before weed generation under submerged conditions (Table 16, symbol A); format: in vivo, late watergrass (Echinochloa oryzicola); conditions: 320 g/ha applied herbicide
Summary of the method: (§3)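 Alluvial soil was flooded to 4 cm depth, weed seeds were sown mixed and 2.5-leaf rice seedlings were transplanted. On sowing day, the compound's emulsion, diluted in water to a set dose, was applied to the water surface. Plants grew at 25–30 °C and were scored 0–5 after three weeks.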

Chinese sprangletop = experiment: Test Example 3: herbicidal effect by foliage application, Wagner pot (Table 18, symbol D); format: in vivo, chinese sprangletop (Leptochloa chinensis); conditions: 320 g/ha
Summary of the method: (§4)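 Plants were sown in alluvial soil held under 0.1–0.5 cm standing water and grown 14 days in a greenhouse at 25–30 °C. An emulsifiable formulation, water-diluted to the set dose, was then sprayed onto the foliage, and effects were scored three weeks later using previously defined criteria.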

lambsquarters [10] = experiment: Test Example 4: herbicidal effect by soil treatment (Table 19, symbol O); format: in vivo, lambsquarters (Chenopodium album); conditions: 320 g/ha
Summary of the method: as §2

chickweed [11] = experiment: Test Example 5: herbicidal effect by foliage application, plastic box (Table 20, symbol P); format: in vivo, common chickweed (Stellaria media); conditions: foliage application, 320 g/ha, evaluated three weeks after application
Summary of the method: as §1

lambsquarters [12] = experiment: Test Example 5: herbicidal effect by foliage application, plastic box (Table 20, symbol O); format: in vivo, lambsquarters (Chenopodium album); conditions: foliage application, 320 g/ha, evaluated three weeks after application
Summary of the method: as §1

barnyard grass [13] = experiment: Test Example 4: herbicidal effect by soil treatment (Table 19, symbol H); format: in vivo, barnyard grass (Echinochloa crus-galli); conditions: 320 g/ha
Summary of the method: as §2

windgrass [14] = experiment: Test Example 4: herbicidal effect by soil treatment (Table 19, symbol L); format: in vivo, windgrass (Apera spica-venti); conditions: 320 g/ha
Summary of the method: as §2

rice flat sedge = experiment: Test Example 3: herbicidal effect by foliage application, Wagner pot (Table 18, symbol E); format: in vivo, rice flat sedge (Cyperus iria); conditions: 320 g/ha
Summary of the method: as §4

blackgrass [15] = experiment: Test Example 4: herbicidal effect by soil treatment (Table 19, symbol J); format: in vivo, blackgrass (Alopecurus myosuroides); conditions: 320 g/ha
Summary of the method: as §2

green foxtail [16] = experiment: Test Example 5: herbicidal effect by foliage application, plastic box (Table 20, symbol G); format: in vivo, green foxtail (Setaria viridis); conditions: foliage application, 320 g/ha, evaluated three weeks after application
Summary of the method: as §1

Japanese bulrush = experiment: Test Example 1: herbicidal activity, application before weed generation under submerged conditions (Table 16, symbol B); format: in vivo, Japanese bulrush (Schoenoplectus juncoides); conditions: 320 g/ha applied herbicide
Summary of the method: as §3

chickweed [17] = experiment: Test Example 4: herbicidal effect by soil treatment (Table 19, symbol P); format: in vivo, common chickweed (Stellaria media); conditions: 320 g/ha
Summary of the method: as §2

Italian ryegrass [18] = experiment: Test Example 5: herbicidal effect by foliage application, plastic box (Table 20, symbol K); format: in vivo, Italian ryegrass (Lolium multiflorum); conditions: foliage application, 320 g/ha, evaluated three weeks after application
Summary of the method: as §1

southern crabgrass [19] = experiment: Test Example 4: herbicidal effect by soil treatment (Table 19, symbol F); format: in vivo, southern crabgrass (Digitaria ciliaris); conditions: 320 g/ha
Summary of the method: as §2

velvetleaf [20] = experiment: Test Example 5: herbicidal effect by foliage application, plastic box (Table 20, symbol M); format: in vivo, velvetleaf (Abutilon theophrasti); conditions: foliage application, 320 g/ha, evaluated three weeks after application
Summary of the method: as §1

false cleavers [21] = experiment: Test Example 4: herbicidal effect by soil treatment (Table 19, symbol Q); format: in vivo, false cleavers (Galium spurium); conditions: 320 g/ha
Summary of the method: as §2

persian speedwell [22] = experiment: Test Example 4: herbicidal effect by soil treatment (Table 19, symbol R); format: in vivo, Persian speedwell (Veronica persica); conditions: 320 g/ha
Summary of the method: as §2

wild oat [23] = experiment: Test Example 4: herbicidal effect by soil treatment (Table 19, symbol I); format: in vivo, wild oat (Avena fatua); conditions: 320 g/ha
Summary of the method: as §2

oval-leafed pondweed = experiment: Test Example 1: herbicidal activity, application before weed generation under submerged conditions (Table 16, symbol C); format: in vivo, oval-leafed pondweed (Monochoria vaginalis); conditions: 320 g/ha applied herbicide
Summary of the method: as §3

barnyard grass [24] = experiment: Test Example 3: herbicidal effect by foliage application, Wagner pot (Table 18, symbol H); format: in vivo, barnyard grass (Echinochloa crus-galli); conditions: 320 g/ha
Summary of the method: as §4

southern crabgrass [25] = experiment: Test Example 5: herbicidal effect by foliage application, plastic box (Table 20, symbol F); format: in vivo, southern crabgrass (Digitaria ciliaris); conditions: foliage application, 320 g/ha, evaluated three weeks after application
Summary of the method: as §1

barnyard grass [26] = experiment: Test Example 5: herbicidal effect by foliage application, plastic box (Table 20, symbol H); format: in vivo, barnyard grass (Echinochloa crus-galli); conditions: foliage application, 320 g/ha, evaluated three weeks after application
Summary of the method: as §1

persian speedwell [27] = experiment: Test Example 5: herbicidal effect by foliage application, plastic box (Table 20, symbol R); format: in vivo, Persian speedwell (Veronica persica); conditions: foliage application, 320 g/ha, evaluated three weeks after application
Summary of the method: as §1

For CCCC(=O)Oc1c(C)nn(C)c(=O)c1-c1c(-c2ccc(F)cc2OC)sc2ccc(Cl)cc12 [2-096], the “herbicidal effect on Q: false cleavers” value (false cleavers [1]) was 4 (Herbicidal rate of 70% or more and less than 90%), the “herbicidal effect rating, M: velvetleaf” value (velvetleaf [2]) was 0 (Herbicidal rate of 5% or less (almost no effect)) and the “herbicidal effect rating, N: redroot pigweed” value (redroot pigweed [3]) was 5 (Herbicidal rate of 90% or more (almost completely withered)). For the same compound, the “herbicidal effect rating, G: green foxtail” value (green foxtail [4]) was 3 (Herbicidal rate of 40% or more and less than 70%), the “herbicidal effect on I: wild oat” value (wild oat [5]) was 0 (Herbicidal rate of 5% or less (almost no effect)) and the “herbicidal effect on N: redroot pigweed” value (redroot pigweed [6]) was 3 (Herbicidal rate of 40% or more and less than 70%). The “herbicidal effect on L: windgrass” value (windgrass [7]) was 4 (Herbicidal rate of 70% or more and less than 90%), the “herbicidal effect rating, K: Italian ryegrass” value (Italian ryegrass [8]) was 0 (Herbicidal rate of 5% or less (almost no effect)) and the “herbicidal effect on J: blackgrass” value (blackgrass [9]) was 4 (Herbicidal rate of 70% or more and less than 90%). The “Herbicidal effect on A: late watergrass (grade 0-5)” value (late watergrass) was 1 (Herbicidal rate of 5% or more and less than 20%), the “herbicidal effect on D (Chinese sprangletop), rating 0-5” value (Chinese sprangletop) was 1 (Herbicidal rate of 5% or more and less than 20%) and the “herbicidal effect rating, O: lambsquarters” value (lambsquarters [10]) was 3 (Herbicidal rate of 40% or more and less than 70%). For the same compound, the “herbicidal effect on P: chickweed” value (chickweed [11]) was 5 (Herbicidal rate of 90% or more (almost completely withered)), the “herbicidal effect on O: lambsquarters” value (lambsquarters [12]) was 3 (Herbicidal rate of 40% or more and less than 70%) and the “herbicidal effect rating, H: barnyard grass” value (barnyard grass [13]) was 2 (Herbicidal rate of 20% or more and less than 40%). The “herbicidal effect rating, L: windgrass” value (windgrass [14]) was 0 (Herbicidal rate of 5% or less (almost no effect)), the “herbicidal effect on E (rice flat sedge), rating 0-5” value (rice flat sedge) was 3 (Herbicidal rate of 40% or more and less than 70%) and the “herbicidal effect rating, J: blackgrass” value (blackgrass [15]) was 0 (Herbicidal rate of 5% or less (almost no effect)). The “herbicidal effect on G: green foxtail” value (green foxtail [16]) was 3 (Herbicidal rate of 40% or more and less than 70%), the “Herbicidal effect on B: Japanese bulrush (grade 0-5)” value (Japanese bulrush) was 3 (Herbicidal rate of 40% or more and less than 70%) and the “herbicidal effect rating, P: chickweed” value (chickweed [17]) was 4 (Herbicidal rate of 70% or more and less than 90%). The “herbicidal effect on K: Italian ryegrass” value (Italian ryegrass [18]) was 0 (Herbicidal rate of 5% or less (almost no effect)), the “herbicidal effect rating, F: southern crabgrass” value (southern crabgrass [19]) was 3 (Herbicidal rate of 40% or more and less than 70%) and the “herbicidal effect on M: velvetleaf” value (velvetleaf [20]) was 1 (Herbicidal rate of 5% or more and less than 20%). For the same compound, the “herbicidal effect rating, Q: false cleavers” value (false cleavers [21]) was 0 (Herbicidal rate of 5% or less (almost no effect)), the “herbicidal effect rating, R: persian speedwell” value (persian speedwell [22]) was 0 (Herbicidal rate of 5% or less (almost no effect)) and the “herbicidal effect rating, I: wild oat” value (wild oat [23]) was 0 (Herbicidal rate of 5% or less (almost no effect)). The “Herbicidal effect on C: oval-leafed pondweed (grade 0-5)” value (oval-leafed pondweed) was 2 (Herbicidal rate of 20% or more and less than 40%), the “herbicidal effect on H (barnyard grass), rating 0-5” value (barnyard grass [24]) was 3 (Herbicidal rate of 40% or more and less than 70%) and the “herbicidal effect on F: southern crabgrass” value (southern crabgrass [25]) was 3 (Herbicidal rate of 40% or more and less than 70%). For the same compound, the “herbicidal effect on H: barnyard grass” value (barnyard grass [26]) was 4 (Herbicidal rate of 70% or more and less than 90%) and the “herbicidal effect on R: persian speedwell” value (persian speedwell [27]) was 3 (Herbicidal rate of 40% or more and less than 70%).
